Experiments:
[1] = molecular target: T1, SARS-CoV-2 Mpro (Severe acute respiratory syndrome coronavirus 2, UniProt P0DTD1); assay: in vitro anti-SARS-CoV-2 Mpro protease activity (fluorescent substrate assay); assay type: biochemical; conditions: 25 nM Mpro protein, 25 µM substrate
T1 construct: SARS-CoV-2 Mpro; purchased WuXi AppTec
Protocol: The compound was dissolved in DMSO, diluted in a 3-fold gradient using Echo655 according to the required test concentration, with 10 concentration points. Each concentration was duplicated and added to a 384-well plate. The Mpro protein and substrate were diluted with a test buffer (100 mM NaCl, 20 mM Tris-HCl, 1 mM EDTA), and the Mpro protein was added to the 384-well test plate, incubated with the compound at room temperature for 30 min, then the substrate was added. The test concentration of the Mpro protein was 25 nM and the test concentration of the substrate was 25 µM. The mixture was incubated in a constant temperature incubator at 30°C for 60 minutes. Then, the fluorescence signal value at Ex/Em = 340 nm/490 nm was detected using a microplate reader. At the same time, the background well containing substrate and compound but not containing Mpro protein was detected as a control. […]

[2] = test system: coronavirus HCoV OC43; assay: in vitro anti-coronavirus activity, cytopathic model (CPE, CellTiter Glo); assay type: cell-based; conditions: Betacoronavirus 1, 120 h; MRC5 cells, HCoV OC43 100TCID50/well, 5 days
Protocol: MRC5 cells and coronavirus HCoV OC43 were purchased from ATCC.
MRC5 cells were cultured in MEM (Sigma) culture medium supplemented with 10% fetal bovine serum (Excell), 1% dual antibody (Hyclone), 1% L-glutamine (Gibco), and 1% non-essential amino acids (Gibco). MEM (Sigma) culture medium supplemented with 5% fetal bovine serum (Excell), 1% dual antibody (Hyclone), 1% L-glutamine (Gibco), and 1% non-essential amino acids (Gibco) was used as the experimental culture medium.
Cells were seeded at a certain density (Table 12) into a 96-well plate and incubated overnight in a 5% CO2, 37°C incubator. The next day, the diluted compound (8 concentration points, double replicate wells) was added thereto, 50 µL per well. Then the diluted virus was added to each well at 100 TCID50, 50 µL per well. Cell controls (cells, no compound treatment or virus infection), virus controls (cells infected with virus, no compound treatment), and culture medium controls (only culture medium) were set up. […] Cell viability was detected using the CellTiter Glo (Promega) cell viability assay kit. […]
(§1) The inhibition rate and cell viability of the compound were analyzed using GraphPad Prism for non-linear fitting, and the half-maximal effective concentration (EC50) and half-maximal cytotoxic concentration (CC50) values of the compound were calculated. […]

[3] = cytotoxicity experiment (same conditions, without virus infection); assay type: cell-based; conditions: human; MRC5 cells, 5 days, no virus
Protocol: Cells were seeded at a certain density (Table 12) into a 96-well plate and incubated overnight in a 5% CO2, 37°C incubator. The next day, the diluted compound (8 concentration points, double replicate wells) was added thereto, 50 µL per well. Then the diluted virus was added to each well at 100 TCID50, 50 µL per well. Cell controls (cells, no compound treatment or virus infection), virus controls (cells infected with virus, no compound treatment), and culture medium controls (only culture medium) were set up. The final volume of the experimental culture medium was 200 µL, with a final DMSO concentration of 0.5% in the culture medium. The cells were incubated for 5 days in a 5% CO2, 33°C incubator. Cell viability was detected using the CellTiter Glo (Promega) cell viability assay kit. The conditions for the cytotoxicity experiment were the same as for the antiviral experiment, but without virus infection.
The antiviral activity and cytotoxicity of the compound were represented by the inhibition rate (%) and the cell viability (%) of the cytopathic effect caused by the virus at different concentrations of the compound, respectively. […]
as §1

[4] = test system: coronavirus OC43 strain; assay: in vivo antiviral efficacy, suckling mouse infection model; conditions: once a day for 7 consecutive days, first dose 2 hours before inoculation
Text: Experimental example 4: Evaluation of the in vivo antiviral efficacy of the test compound using a suckling mouse infection model with the coronavirus OC43 strain

[5] = in vivo; design: species or system SD rats; conditions: rat; for AUC(0-t): AUC0-last; for half-life: T1/2
Protocol: In this study, male and female SD rats were selected as test animals.
Animals were grouped according to 3 per group/gender. […] The plasma drug concentration was determined using LC-MS/MS method. Table 14: Pharmacokinetic parameters in rats

[6] = hygroscopicity by dynamic vapor sorption (DVS); assay type: physicochemical
Protocol: • Instrument model: SMS DVS Advantage dynamic vapor sorption analyzer • Test conditions: A sample (10 to 30 mg) is taken and placed in a DVS sample tray for testing. • The detailed parameters for DVS are as follows: • Temperature: 25°C • Equilibrium: dm/dt = 0.002%/min (minimum: 10 minutes, maximum: 180 minutes) • RH (%) range: 70%RH-95%RH-0%RH-95%RH • RH (%) gradient: 10% (90%RH-0%RH-90%RH), 5% (95%RH-90%RH and 90%RH-95%RH).

[7] = stability of the crystal form under different conditions (XRPD confirmation); assay type: physicochemical
Text: Table 6: Stability test under different conditions

Compound: CC(C)(C)[C@H](NC(=O)C(F)(F)F)C(=O)N1[C@H]2C[C@@H]([C@H]1C(=O)N[C@H](C#N)C[C@@H]1CCNC1=O)C1(CC1)C2 [Compound 1]
- IC50 [1]: 1.8 nM
- EC50 [2]: 5.1 nM
- EC90 [2]: 7.9 nM
- CC50 at 120 h [3]: > 10000 nM
- Median survival time ([4]; 12.5 mg/kg): > 14 days
- Survival rate ([4]; 12.5 mg/kg): 87.5%
- Median survival time ([4]; 25 mg/kg): > 14 days
- Survival rate ([4]; 25 mg/kg): 100%
- Median survival time ([4]; 50 mg/kg): > 14 days
- Survival rate ([4]; 50 mg/kg): 100%

Compound: CC(C)(C)[C@H](NC(=O)C(F)(F)F)C(=O)N1[C@H]2C[C@@H]([C@H]1C(=O)N[C@H](C#N)C[C@@H]1CCNC1=O)C1(CC1)C2 [Crystal form A]
- AUC0-last ([5]; iv, 2 mg/kg): 778 ng·h/mL
- AUC(0-inf) ([5]; iv, 2 mg/kg): 785 ng·h/mL
- Cl ([5]; iv, 2 mg/kg): 42.5 mL/min/kg
- T1/2 ([5]; iv, 2 mg/kg): 18.2 min
- Vdss ([5]; iv, 2 mg/kg): 1.04 L/kg
- AUC(0-inf) ([5]; iv, 2 mg/kg, AUC0-inf): 804 ng·h/mL
- AUC(0-t) ([5]; iv, 2 mg/kg): 792 ng·h/mL
- clearance ([5]; iv, 2 mg/kg, Cl): 42.4 mL/min/kg
- half-life ([5]; iv, 2 mg/kg): 19.8 min
- Vd ([5]; iv, 2 mg/kg, Vdss): 1.11 L/kg
- AUC0-last ([5]; po, 30 mg/kg): 9910 ng·h/mL
- Tmax ([5]; po, 30 mg/kg): 30 min
- AUC(0-inf) ([5]; po, 30 mg/kg, AUC0-inf): 5980 ng·h/mL
- AUC(0-t) ([5]; po, 30 mg/kg): 5960 ng·h/mL
- half-life ([5]; po, 30 mg/kg): 49.6 min
- Tmax ([5]; po, 30 mg/kg, Tmax): 55 min
- hygroscopic weight gain ([6]; 25°C and 80% RH): 0.114%
- hygroscopicity ([6]; 25°C and 80% RH): no or almost no hygroscopicity
- ΔW ([6]; DVS pattern, Figure 16): 0.114%
- Confirmation of crystal form by XRPD after completion of the experiment ([7]; High humidity condition (25°C/92.5%RH), 30 days): Crystal form A
- Confirmation of crystal form by XRPD after completion of the experiment ([7]; High temperature (60°C), 30 days): Crystal form A
- Confirmation of crystal form by XRPD after completion of the experiment ([7]; Illumination (5000 ± 500 lux (visible light) and 90 µw/cm^2 (ultraviolet)), 10 days): Crystal form A

— patent publication EP4603497A1, “CRYSTAL FORM OF CYANO-SUBSTITUTED POLYPEPTIDE COMPOUND AND PREPARATION METHOD THEREFOR” (Fujian Akeylink Biotechnology Co., Ltd., priority 2022, dated 2024)
